From patent US4689326A, “Process for controlling hyperlipidemia” (Research Corporation, priority 1985, dated 1987)

Each compound was assayed on serum cholesterol (assay: Testing of Normal Mice: serum cholesterol (modified Liebermann-Burchard), Example 7). Details: Mus musculus, 216 h; 20 mg/kg/day ip, day 9, ± SD; read-out: Serum Cholesterol Control, % Day 9.
Type: in vivo, CF1 male mice
Description: (§1) Suspensions of Compounds Nos. 1-9 were prepared wherein the compounds were suspended in an aqueous 1% carboxymethylcelluose solution, homogenized and administered to CF1 male mice, each weighing approximately 25 grams, intraperitoneally on a daily basis for 16 days. The dosage was, with the exception of one compound, 20 milligrams of the active compound per kilogram of mouse weight per day. On days 9 and 16 blood was obtained by tail vein bleeding. The blood serum was separated by centrifugation for three minutes. Serum cholesterol levels were determined by a modification of the Liebermann-Burchard reaction. Serum was also collected on day 16 and the triglycerides content was determined by a commercial kit, BioDynamics/bnc Single Vile Colorimetric Method 348201. Each compound was tested on a group of six mice.
(§2) In addition to the above-described treated mice, untreated control groups of six mice were similarly tested on days 9 and 14 or 16 to determine their serum cholesterol and triglycerides blood levels. Table 5 reports the percent control, based on the serum cholesterol and serum triglyceride levels of the treated mice compared to the untreated controls. Table 5 also includes the standard deviation indicating the level of confidence of these numbers.
(§3) Example 7 was repeated substituting clofibrate, a compound used in the prior art to lower serum cholesterol and serum triglyceride levels. The clofibrate was administered as a suspension in an aqueous 1% solution of carboxymethylcellulose. However, unlike the compounds of the present invention which were administered at a dosage of 20 mg/kg day, ip, this compound was administered at the elevated concentration of 150 mg/kg day, ip.

SMILES	response vs control in vivo at 20 mg/kg [%]
O=C1NCc2ccccc2-c2ccccc21 [Compound 2, 3,4,5,6-dibenzohomopiperidin-2-one]	84 ± 6
CN1Cc2ccccc2-c2ccccc2C1 [Compound 4, 2-methyl-3,4,5,6-dibenzohomo-piperidine]	75 ± 6
CCN1Cc2ccccc2-c2ccccc2C1 [Compound 5, 2-ethyl-3,4,5,6-dibenzohomopiperidine]	67 ± 5
CCCN1Cc2ccccc2-c2ccccc2C1 [Compound 6, 2-propyl-3,4,5,6-dibenzohomopiperidine]	78 ± 6
CCCCN1Cc2ccccc2-c2ccccc2C1 [Compound 7, 2-butyl-3,4,5,6-dibenzohomopiperidine]	82 ± 7
CCCCCN1Cc2ccccc2-c2ccccc2C1 [Compound 8, 2-pentyl-3,4,5,6-dibenzohomopiperidine]	71 ± 6
CC(=O)CCN1Cc2ccccc2-c2ccccc2C1 [Compound 9, 2-(3-Oxobutyl)-3,4,5,6-Dibenzohomopiperidine]	69 ± 8

Same assay, conditions: Mus musculus, 216 h; 150 mg/kg/day ip, day 9, ± SD; read-out: Serum Cholesterol Control, % Day 9

SMILES	response vs control in vivo at 150 mg/kg [%]
CCOC(=O)C(C)(C)Oc1ccc(Cl)cc1 [Compound C2, clofibrate, reference compound]	88 ± 7

Same assay, conditions: Mus musculus, 384 h; 20 mg/kg/day ip, day 16, ± SD; read-out: Serum Cholesterol Control, % Day 16

SMILES	response vs control in vivo at 20 mg/kg [%]
O=C1NCc2ccccc2-c2ccccc21 [Compound 2, 3,4,5,6-dibenzohomopiperidin-2-one]	49 ± 4
CN1Cc2ccccc2-c2ccccc2C1 [Compound 4, 2-methyl-3,4,5,6-dibenzohomo-piperidine]	61 ± 5
CCN1Cc2ccccc2-c2ccccc2C1 [Compound 5, 2-ethyl-3,4,5,6-dibenzohomopiperidine]	59 ± 4
CCCN1Cc2ccccc2-c2ccccc2C1 [Compound 6, 2-propyl-3,4,5,6-dibenzohomopiperidine]	65 ± 5
CCCCN1Cc2ccccc2-c2ccccc2C1 [Compound 7, 2-butyl-3,4,5,6-dibenzohomopiperidine]	59 ± 6
CCCCCN1Cc2ccccc2-c2ccccc2C1 [Compound 8, 2-pentyl-3,4,5,6-dibenzohomopiperidine]	67 ± 5
CC(=O)CCN1Cc2ccccc2-c2ccccc2C1 [Compound 9, 2-(3-Oxobutyl)-3,4,5,6-Dibenzohomopiperidine]	56 ± 7

Same assay, conditions: Mus musculus, 384 h; 150 mg/kg/day ip, day 16, ± SD; read-out: Serum Cholesterol Control, % Day 16

SMILES	response vs control in vivo at 150 mg/kg [%]
CCOC(=O)C(C)(C)Oc1ccc(Cl)cc1 [Compound C2, clofibrate, reference compound]	87 ± 5

These compounds were tested on serum triglycerides (assay: Testing of Normal Mice: serum triglycerides (BioDynamics kit), Example 7). Details: Mus musculus, 384 h; 20 mg/kg/day ip, day 16, ± SD.
Type: in vivo, CF1 male mice
Description: as §1, §2, §3

SMILES	response vs control in vivo at 20 mg/kg [%]
O=C1NCc2ccccc2-c2ccccc21 [Compound 2, 3,4,5,6-dibenzohomopiperidin-2-one]	73 ± 5
CN1Cc2ccccc2-c2ccccc2C1 [Compound 4, 2-methyl-3,4,5,6-dibenzohomo-piperidine]	66 ± 6
CCN1Cc2ccccc2-c2ccccc2C1 [Compound 5, 2-ethyl-3,4,5,6-dibenzohomopiperidine]	60 ± 4
CCCN1Cc2ccccc2-c2ccccc2C1 [Compound 6, 2-propyl-3,4,5,6-dibenzohomopiperidine]	73 ± 6
CCCCN1Cc2ccccc2-c2ccccc2C1 [Compound 7, 2-butyl-3,4,5,6-dibenzohomopiperidine]	52 ± 7
CCCCCN1Cc2ccccc2-c2ccccc2C1 [Compound 8, 2-pentyl-3,4,5,6-dibenzohomopiperidine]	71 ± 4
CC(=O)CCN1Cc2ccccc2-c2ccccc2C1 [Compound 9, 2-(3-Oxobutyl)-3,4,5,6-Dibenzohomopiperidine]	45 ± 5

Same assay, conditions: Mus musculus, 384 h; 150 mg/kg/day ip, day 16, ± SD

SMILES	response vs control in vivo at 150 mg/kg [%]
CCOC(=O)C(C)(C)Oc1ccc(Cl)cc1 [Compound C2, clofibrate, reference compound]	75 ± 5

These compounds were tested on serum cholesterol (assay: Hypolipidemic Activity of Compounds 1 and 10-33, Example 13: serum cholesterol). Details: Mus musculus, 216 h; 20 mg/kg/day ip, day 9, ± SD; read-out: Serum Cholesterol as a function of control, 9 Day.
Type: in vivo, CF1 male mice
Description: (§4) Compounds 1 and 10-33, identified below in Table 11, were suspended by homogenation in a 1% aqueous solution of carboxymethylcellulose (CMC) such that a 0.2 ml dosage supplied a concentration of 20 mg/kg of the active compounds. The suspending agent, the 1% aqueous solution of CMC, was utilized as a control, applied in the same quantity, 0.2 ml. CF1 male mice, maintained in groups of six, were fed Wayne Blox [trademark] laboratory animal show ad libitum with water. The mice, which each weighed approximately 25 g, were administered the drugs interperitoneally at approximately the same time. On days 9 and 16 approximately […] of blood was taken from each of the animals by tail bleeding. After centrifugation to obtain serum, 25 microliter samples were assayed for total cholesterol utilizing the method of Ness et al. Serum triglyicerides were assayed, using a commercially available BioDynamics/bmc triglyiceride kit, on blood collected on the 16th day. By comparison to standards the milligram percent of cholesterol and milligram per deciliter concentration of triglicerides were calculated. Treated values were expressed as a percent of the level of the control animals plus or minus the standard deviation. The "T" values were obtained using the Student's "t" test.

SMILES	response vs control in vivo at 20 mg/kg [%]
Cn1c(=O)c2ccccc2c2ccccc2c1=O [Compound 10, N-methyldiphenimide]	64 ± 7
CCn1c(=O)c2ccccc2c2ccccc2c1=O [Compound 11, N-ethyldiphenimide]	64 ± 6
CCCn1c(=O)c2ccccc2c2ccccc2c1=O [Compound 12, N-propyldiphenimide]	69 ± 7
CCCCn1c(=O)c2ccccc2c2ccccc2c1=O [Compound 13, N-butyldiphenimide]	78 ± 7
CCCCCn1c(=O)c2ccccc2c2ccccc2c1=O [Compound 14, N-pentyldiphenimide]	90 ± 8
O=c1c2ccccc2c2ccccc2c(=O)n1Cc1ccccc1 [Compound 15, N-benzyldiphenimide]	91 ± 7
CC(=O)CCn1c(=O)c2ccccc2c2ccccc2c1=O [Compound 16, N-(3-Oxobutyl)-Diphenimide]	77 ± 5
O=C(O)CCn1c(=O)c2ccccc2c2ccccc2c1=O [Compound 17, N-(2-Carboxyethyl)-Diphenimide]	88 ± 11

Same assay, conditions: Mus musculus, 384 h; 20 mg/kg/day ip, day 16, ± SD; read-out: Serum Cholesterol as a function of control, 16 Day

SMILES	response vs control in vivo at 20 mg/kg [%]
Cn1c(=O)c2ccccc2c2ccccc2c1=O [Compound 10, N-methyldiphenimide]	63 ± 5
CCn1c(=O)c2ccccc2c2ccccc2c1=O [Compound 11, N-ethyldiphenimide]	62 ± 5
CCCn1c(=O)c2ccccc2c2ccccc2c1=O [Compound 12, N-propyldiphenimide]	66 ± 6
CCCCn1c(=O)c2ccccc2c2ccccc2c1=O [Compound 13, N-butyldiphenimide]	77 ± 10
CCCCCn1c(=O)c2ccccc2c2ccccc2c1=O [Compound 14, N-pentyldiphenimide]	69 ± 4
O=c1c2ccccc2c2ccccc2c(=O)n1Cc1ccccc1 [Compound 15, N-benzyldiphenimide]	61 ± 6
CC(=O)CCn1c(=O)c2ccccc2c2ccccc2c1=O [Compound 16, N-(3-Oxobutyl)-Diphenimide]	77 ± 7
O=C(O)CCn1c(=O)c2ccccc2c2ccccc2c1=O [Compound 17, N-(2-Carboxyethyl)-Diphenimide]	84 ± 6

The compounds below were run on serum triglycerides (assay: Hypolipidemic Activity of Compounds 1 and 10-33, Example 13: serum triglycerides). Details: Mus musculus, 384 h; 20 mg/kg/day ip, day 16, ± SD; read-out: Serum Triglyceride as a function of control, 16 Day.
Type: in vivo, CF1 male mice
Description: as §4

SMILES	response vs control in vivo at 20 mg/kg [%]
Cn1c(=O)c2ccccc2c2ccccc2c1=O [Compound 10, N-methyldiphenimide]	67 ± 6
CCn1c(=O)c2ccccc2c2ccccc2c1=O [Compound 11, N-ethyldiphenimide]	66 ± 7
CCCn1c(=O)c2ccccc2c2ccccc2c1=O [Compound 12, N-propyldiphenimide]	57 ± 5
CCCCn1c(=O)c2ccccc2c2ccccc2c1=O [Compound 13, N-butyldiphenimide]	52 ± 5
CCCCCn1c(=O)c2ccccc2c2ccccc2c1=O [Compound 14, N-pentyldiphenimide]	60 ± 5
O=c1c2ccccc2c2ccccc2c(=O)n1Cc1ccccc1 [Compound 15, N-benzyldiphenimide]	77 ± 7
CC(=O)CCn1c(=O)c2ccccc2c2ccccc2c1=O [Compound 16, N-(3-Oxobutyl)-Diphenimide]	90 ± 4
O=C(O)CCn1c(=O)c2ccccc2c2ccccc2c1=O [Compound 17, N-(2-Carboxyethyl)-Diphenimide]	75 ± 10
